# Data reported in PubChem BioAssay AID1963959 (Molecular Pharmacology Branch, DTP, NCI, 2024).
# System: T-47D spheroids with HUVEC/MSC, viability
# Test: Anticancer human tumor T-47D cell line growth inhibition [PI3K];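 note: spheroids exposed to agents for seven days before reading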;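 for viability, T/C: percent of DMSO vehicle control luminescence so 100% = untreated growth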
# Settings: for IC50: curve of first compound; for viability, T/C: stronger effect = lower value
# Procedure, shortened: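 We assembled tumor spheroids that included a stromal compartment of HUVEC and MSCs, then exposed them to targeted agents alone and together with PI3K pathway inhibitors. Concentration series descended by half-log from clinically achievable Cmax levels. Viability served as the endpoint.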
# [1] = second compound 0.0316 µM, first compound 0.0316 µM
# [2] = second compound 0.0316 µM, first compound 0.1 µM
# [3] = second compound 0.0316 µM, first compound 0.316 µM
# [4] = second compound 0.0316 µM, first compound 1 µM
# [5] = second compound 0.1 µM, first compound 0.0316 µM
# [6] = second compound 0.1 µM, first compound 0.1 µM
# [7] = second compound 0.1 µM, first compound 0.316 µM
# [8] = second compound 0.1 µM, first compound 1 µM
# [9] = second compound 0.316 µM, first compound 0.0316 µM
# [10] = second compound 0.316 µM, first compound 0.1 µM
# [11] = second compound 0.316 µM, first compound 0.316 µM
# [12] = second compound 0.316 µM, first compound 1 µM
# [13] = second compound 1 µM, first compound 0.0316 µM
# [14] = second compound 1 µM, first compound 0.1 µM
# [15] = second compound 1 µM, first compound 0.316 µM
# [16] = second compound 1 µM, first compound 1 µM
structure (smiles),measurement,setting,value
C[C@@H](NC(=O)c1ncnc(N)c1Cl)c1ncc(C(=O)Nc2cc(C(F)(F)F)c(Cl)cn2)s1 + CC(Nc1ccc2c(c1)OCCn1cc(N3C(=O)OCC3C(F)F)nc1-2)C(N)=O,IC50,second compound 0.00316 µM,> 10000 nM
same,IC50,second compound 0.01 µM,> 10000 nM
same,IC50,second compound 0.0316 µM,> 10000 nM
same,IC50,second compound 0.1 µM,> 10000 nM
same,IC50,second compound 0.316 µM,> 10000 nM
same,IC50,second compound 1 µM,> 10000 nM
same,"viability, T/C","second compound 0.00316 µM, first compound 0.0316 µM",110%
same,"viability, T/C","second compound 0.00316 µM, first compound 0.1 µM",92.2%
same,"viability, T/C","second compound 0.00316 µM, first compound 0.316 µM",87.9%
same,"viability, T/C","second compound 0.00316 µM, first compound 1 µM",79.2%
same,"viability, T/C","second compound 0.00316 µM, first compound 3.16 µM",94.5%
same,"viability, T/C","second compound 0.00316 µM, first compound 10 µM",99.3%
same,"viability, T/C","second compound 0.01 µM, first compound 0.0316 µM",104%
same,"viability, T/C","second compound 0.01 µM, first compound 0.1 µM",85.3%
same,"viability, T/C","second compound 0.01 µM, first compound 0.316 µM",87.4%
same,"viability, T/C","second compound 0.01 µM, first compound 1 µM",83.3%
same,"viability, T/C","second compound 0.01 µM, first compound 3.16 µM",113%
same,"viability, T/C","second compound 0.01 µM, first compound 10 µM",101%
same,"viability, T/C",[1],95.2%
same,"viability, T/C",[2],87.3%
same,"viability, T/C",[3],83.8%
same,"viability, T/C",[4],86.2%
same,"viability, T/C","second compound 0.0316 µM, first compound 3.16 µM",91.4%
same,"viability, T/C","second compound 0.0316 µM, first compound 10 µM",94.7%
same,"viability, T/C",[5],79.8%
same,"viability, T/C",[6],82%
same,"viability, T/C",[7],83.3%
same,"viability, T/C",[8],97.1%
same,"viability, T/C","second compound 0.1 µM, first compound 3.16 µM",97.4%
same,"viability, T/C","second compound 0.1 µM, first compound 10 µM",94.4%
same,"viability, T/C",[9],69.4%
same,"viability, T/C",[10],79.6%
same,"viability, T/C",[11],75.2%
same,"viability, T/C",[12],69.8%
same,"viability, T/C","second compound 0.316 µM, first compound 3.16 µM",71.8%
same,"viability, T/C","second compound 0.316 µM, first compound 10 µM",74.3%
same,"viability, T/C",[13],52.9%
same,"viability, T/C",[14],53.4%
same,"viability, T/C",[15],65%
same,"viability, T/C",[16],57.9%
same,"viability, T/C","second compound 1 µM, first compound 3.16 µM",62.3%
same,"viability, T/C","second compound 1 µM, first compound 10 µM",65.8%
CCN1CCN(Cc2ccc(Nc3ncc(F)c(-c4cc(F)c5nc(C)n(C(C)C)c5c4)n3)nc2)CC1 + Cc1nc(NC(=O)N2CCCC2C(N)=O)sc1-c1ccnc(C(C)(C)C(F)(F)F)c1,IC50,second compound 0.0316 µM,> 1000 nM
same,IC50,second compound 0.1 µM,> 1000 nM
same,IC50,second compound 0.316 µM,> 1000 nM
same,IC50,second compound 1 µM,> 1000 nM
same,IC50,second compound 3.16 µM,8.56 nM
same,IC50,second compound 10 µM,< 3.16 nM
same,"viability, T/C","second compound 0.0316 µM, first compound 0.00316 µM",111%
same,"viability, T/C","second compound 0.0316 µM, first compound 0.01 µM",87.8%
same,"viability, T/C",[1],89%
same,"viability, T/C",[2],85%
same,"viability, T/C",[3],80.9%
same,"viability, T/C",[4],92.7%
same,"viability, T/C","second compound 0.1 µM, first compound 0.00316 µM",100%
same,"viability, T/C","second compound 0.1 µM, first compound 0.01 µM",73.7%
same,"viability, T/C",[5],82.1%
same,"viability, T/C",[6],72.3%
same,"viability, T/C",[7],80.7%
same,"viability, T/C",[8],85.2%
same,"viability, T/C","second compound 0.316 µM, first compound 0.00316 µM",96%
same,"viability, T/C","second compound 0.316 µM, first compound 0.01 µM",73.4%
same,"viability, T/C",[9],70.2%
same,"viability, T/C",[10],67%
same,"viability, T/C",[11],64.4%
same,"viability, T/C",[12],73.2%
same,"viability, T/C","second compound 1 µM, first compound 0.00316 µM",78.9%
same,"viability, T/C","second compound 1 µM, first compound 0.01 µM",64.5%
same,"viability, T/C",[13],55.9%
same,"viability, T/C",[14],51.9%
same,"viability, T/C",[15],58.9%
same,"viability, T/C",[16],70.3%
same,"viability, T/C","second compound 3.16 µM, first compound 0.00316 µM",61.2%
same,"viability, T/C","second compound 3.16 µM, first compound 0.01 µM",49.2%
same,"viability, T/C","second compound 3.16 µM, first compound 0.0316 µM",44.2%
same,"viability, T/C","second compound 3.16 µM, first compound 0.1 µM",39.3%
same,"viability, T/C","second compound 3.16 µM, first compound 0.316 µM",47.1%
same,"viability, T/C","second compound 3.16 µM, first compound 1 µM",53.2%
same,"viability, T/C","second compound 10 µM, first compound 0.00316 µM",30.5%
same,"viability, T/C","second compound 10 µM, first compound 0.01 µM",26%
same,"viability, T/C","second compound 10 µM, first compound 0.0316 µM",24.5%
same,"viability, T/C","second compound 10 µM, first compound 0.1 µM",27.2%
same,"viability, T/C","second compound 10 µM, first compound 0.316 µM",33.1%
same,"viability, T/C","second compound 10 µM, first compound 1 µM",38.6%
